Test results as given in patent US9133104B2 (Chroma Therapeutics Ltd., priority 2005, dated 2015).

Legend:
[1] = molecular target: T1, histone deacetylase activity (HeLa nuclear extract); assay: HDAC fluorescent activity assay (Biomol Fluor de Lys), HeLa nuclear extract; format: biochemical; settings: Fluor de Lys substrate, IC50 range
T1 construct: Histone deacetylase activity from crude nuclear extract derived from HeLa cells was used for screening
Description: The ability of compounds to inhibit histone deacetylase activities was measured using the commercially available HDAC fluorescent activity assay from Biomol. In brief, the Fluor de Lys™ substrate, a lysine with an epsilon-amino acetylation, is incubated with the source of histone deacetylase activity (HeLa nuclear extract) in the presence or absence of inhibitor. Deacetylation of the substrate sensitises the substrate to Fluor de Lys™ developer, which generates a fluorophore. Thus, incubation of the substrate with a source of HDAC activity results in an increase in signal that is diminished in the presence of an HDAC inhibitor.
Data are expressed as a percentage of the control, measured in the absence of inhibitor, with background signal being subtracted from all samples, as follows:— % activity=((S^i−B)/(S^o−B))×100 where S^i is the signal in the presence of substrate, enzyme and inhibitor, S^o is the signal in the presence of substrate, enzyme and the vehicle in which the inhibitor is dissolved, and B is the background signal measured in the absence of enzyme.
IC50 values were determined by non-linear regression analysis, after fitting the results of eight data points to the equation for sigmoidal dose response with variable slope (% activity against log concentration of compound), using Graphpad Prism software.
Histone deacetylase activity from crude nuclear extract derived from HeLa cells was used for screening. The preparation, purchased from 4C (Seneffe, Belgium), was prepared from HeLa cells harvested whilst in exponential growth phase. The nuclear extract is prepared according to Dignam JD1983 Nucl. Acid. Res. 11, 1475-1489, snap frozen in liquid nitrogen and stored at −80° C. The final buffer composition was 20 mM Hepes, 100 mM KCl, 0.2 mM EDTA, 0.5 mM DTT, 0.2 mM PMSF and 20% (v/v) glycerol.

[2] = system: U937 cancer cell line; assay: Cell inhibition assay (SRB cell viability), U937; format: cell-based; settings: 72 h, IC50 range
Description: (§1) The corresponding cancer cell lines (Hela, U937 and HUT) growing in log phase were harvested and seeded at 1000 cells/well (200 ul final volume) into 96-well tissue culture plates. Following 24 h of cell growth cells were treated with compounds (final concentration of 20 uM). Plates were then re-incubated for a further 72 h before a sulphorhodamine B (SRB) cell viability assay was conducted according to Skehan 1990 J Natl Canc Inst 82, 1107-1112.
(§2) Data were expressed as a percentage inhibition of the control, measured in the absence of inhibitor, as follows:— % inhibition=100−((S^i/S^o)×100) where S^i is the signal in the presence of inhibitor and S^o is the signal in the presence of DMSO. IC50 values were determined by non-linear regression analysis, after fitting the results of eight data points to the equation for sigmoidal dose response with variable slope (% activity against log concentration of compound), using Graphpad Prism software. […] NT=Not tested

[3] = system: Hela cancer cell line; assay: Cell inhibition assay (SRB cell viability), Hela; format: cell-based; settings: 72 h, Hela cells, IC50 range
Description: as §1, §2

[4] = system: HUT cancer cell line; assay: Cell inhibition assay (SRB cell viability), HUT; format: cell-based; settings: HUT cells, 72 h, IC50 range
Description: as §1, §2

[5] = Homo sapiens, U-937, U937 cells

Row | IC50 [1] [nM] | IC50 [2, 5] [nM] | IC50 ([3]; Homo sapiens, HeLa) [nM] | IC50 [4] [nM] | IC50 [3] [nM] | IC50 ([2]; U937 cells) [nM] | Structure (SMILES)
1 | 101 to 1000 | 330 to 3300 | > 3300 | 330 to 3300 | – | – | O=C(CCCCCCC(=O)N1Cc2[nH]c3ccccc3c2C[C@@H]1C(=O)N[C@H](C(=O)OC1CCCC1)c1ccccc1)NO [Compound 1, (S)-{[(R)-2-(7-Hydroxycarbamoyl-heptanoyl)-2,3,4,9-tetrahydro-1H-beta-carboline-3-carbonyl]-amino}-phenyl-acetic acid cyclopentyl ester]
2 | > 1000 | 330 to 3300 | > 3300 | > 3300 | – | – | O=C(CCCCCCC(=O)N1Cc2[nH]c3ccccc3c2C[C@H]1C(=O)N[C@H](C(=O)OC1CCCC1)c1ccccc1)NO [Compound 3, (S)-{[(S)-2-(7-Hydroxycarbamoyl-heptanoyl)-2,3,4,9-tetrahydro-1H-beta-carboline-3-carbonyl]-amino}-phenyl-acetic acid cyclopentyl ester]
3 | 101 to 1000 | > 3300 | > 3300 | > 3300 | – | – | O=C(CCCCCCC(=O)N1Cc2[nH]c3ccccc3c2C[C@H]1C(=O)N[C@H](C(=O)O)c1ccccc1)NO [Compound 4, (S)-{[(S)-2-(7-Hydroxycarbamoyl-heptanoyl)-2,3,4,9-tetrahydro-1H-beta-carboline-3-carbonyl]-amino}-phenyl-acetic acid]
4 | 101 to 1000 | 330 to 3300 | 330 to 3300 | 330 to 3300 | – | – | CCOC(=O)[C@H](Cc1ccccc1)NC(=O)[C@H]1Cc2c([nH]c3ccccc23)CN1C(=O)CCCCCCC(=O)NO [Compound 5, (S)-2-{[(R)-2-(7-Hydroxycarbamoyl-heptanoyl)-2,3,4,9-tetrahydro-1H-beta-carboline-3-carbonyl]-amino}-3-phenyl-propionic acid ethyl ester]
5 | < 100 | > 3300 | > 3300 | > 3300 | – | – | O=C(CCCCCCC(=O)N1Cc2[nH]c3ccccc3c2C[C@@H]1C(=O)N[C@@H](Cc1ccccc1)C(=O)O)NO [Compound 6, (S)-2-{[(R)-2-(7-Hydroxycarbamoyl-heptanoyl)-2,3,4,9-tetrahydro-1H-beta-carboline-3-carbonyl]-amino}-3-phenyl-propionic acid]
6 | 101 to 1000 | 330 to 3300 | > 3300 | 330 to 3300 | – | – | CCOC(=O)[C@H](Cc1ccccc1)NC(=O)[C@@H]1Cc2c([nH]c3ccccc23)CN1C(=O)CCCCCCC(=O)NO [Compound 7, (S)-2-{[(S)-2-(7-Hydroxycarbamoyl-heptanoyl)-2,3,4,9-tetrahydro-1H-beta-carboline-3-carbonyl]-amino}-3-phenyl-propionic acid ethyl ester]
7 | 101 to 1000 | > 3300 | > 3300 | > 3300 | – | – | O=C(CCCCCCC(=O)N1Cc2[nH]c3ccccc3c2C[C@H]1C(=O)N[C@@H](Cc1ccccc1)C(=O)O)NO [Compound 8, (S)-2-{[(S)-2-(7-Hydroxycarbamoyl-heptanoyl)-2,3,4,9-tetrahydro-1H-beta-carboline-3-carbonyl]-amino}-3-phenyl-propionic acid]
8 | 101 to 1000 | 330 to 3300 | 330 to 3300 | 330 to 3300 | – | – | O=C(CCCCCCC(=O)N1CCc2c([nH]c3ccccc23)C1C(=O)NC(C(=O)OC1CCCC1)c1ccccc1)NO [Compound 9, (S)-{[2-(7-Hydroxycarbarnoyl-heptanoyl)-2,3,4,9-tetrahydro-1H-beta-carboline-1-carbonyl]-amino}-phenyl-acetic acid cyclopentyl ester]
9 | < 100 | > 3300 | > 3300 | > 3300 | – | – | O=C(CCCCCCC(=O)N1CCc2c([nH]c3ccccc23)C1C(=O)N[C@H](C(=O)O)c1ccccc1)NO (stereo partly drawn) [Compound 10, (S)-{[2-(7-Hydroxycarbamoyl-heptanoyl)-2,3,4,9-tetrahydro-1H-beta-carboline-1-carbonyl]amino}-phenyl-acetic acid]
10 | 101 to 1000 | 330 to 3300 | – | 330 to 3300 | 330 to 3300 | – | COc1ccc2[nH]c3c(c2c1)CCN(C(=O)CCCCCCC(=O)NO)C3C(=O)N[C@H](C(=O)OC1CCCC1)c1ccccc1 (stereo partly drawn) [Compound 11, (S)-{[2-(7-Hydroxycarbamoyl-heptanoyl)-6-methoxy-2,3,4,9-tetrahydro-1H-beta-carboline-1-carbonyl]-amino}-phenyl-acetic acid cyclopentyl ester]
11 | 101 to 1000 | > 3300 | > 3300 | > 3300 | – | – | COc1ccc2[nH]c3c(c2c1)CCN(C(=O)CCCCCCC(=O)NO)C3C(=O)N[C@H](C(=O)O)c1ccccc1 (stereo partly drawn) [Compound 12, (S)-{[2-(7-Hydroxycarbamoyl-heptanoyl)-6-methoxy-2,3,4,9-tetrahydro-1H-beta-carboline-1-carbonyl]-amino}-phenyl-acetic acid]
12 | 101 to 1000 | – | – | 330 to 3300 | > 3300 | 330 to 3300 | COc1ccc2[nH]c3c(c2c1)CCN(C(=O)CCCCCCC(=O)NO)C3C(=O)N[C@H](C(=O)OC1CCCC1)c1ccccc1 (stereo partly drawn) [Compound 13, (S)-{[2-(7-Hydroxycarbamoyl-heptanoyl)-6-methoxy-2,3,4,9-tetrahydro-1H-beta-carboline-1-carbonyl]amino}-phenyl-acetic acid cyclopentyl ester]
13 | 101 to 1000 | – | – | > 3300 | > 3300 | > 3300 | COc1ccc2[nH]c3c(c2c1)CCN(C(=O)CCCCCCC(=O)NO)C3C(=O)N[C@H](C(=O)O)c1ccccc1 (stereo partly drawn) [Compound 14, (S)-{[2-(7-Hydroxycarbamoyl-heptanoyl)-6-methoxy-2,3,4,9-tetrahydro-1H-beta-carboline-1-carbonyl]-amino}-phenyl-acetic acid]
14 | 101 to 1000 | < 330 | – | 330 to 3300 | – | – | CC(C)C[C@H](NCc1cccc(NC(=O)CCCCCCC(=O)NO)c1)C(=O)OC1CCCC1 [Compound 39, (S)-2-[3-(7-Hydroxycarbamoyl-heptanoylamino)-benzylamino]-4-methyl-pentanoic acid cyclopentyl ester]
15 | < 100 | > 3300 | – | > 3300 | – | – | O=C(CCCCCCC(=O)Nc1cccc(CNC(=O)N[C@H](C(=O)OC2CCCC2)c2ccccc2)c1)NO [Compound 79, (S)-{3-[3-(7-Hydroxycarbamoyl-heptanoylamino)-benzyl]-ureido}-phenyl-acetic acid cyclopentyl ester]
16 | 101 to 1000 | 330 to 3300 | – | 330 to 3300 | – | – | O=C(CCCCCCC(=O)Nc1cccc(COC(=O)N[C@@H](Cc2ccccc2)C(=O)OC2CCCC2)c1)NO [Compound 94, (S)-2-[3-(7-Hydroxycarbamoyl-heptanoylamino)-benzyloxycarbonylamino]-3-phenyl-propionic acid cyclopentyl ester]
17 | < 100 | < 330 | – | < 330 | – | – | O=C(CNCc1ccc(CNCc2ccc3cc(C(=O)NO)sc3c2)cc1)OC1CCCC1 [Compound 120, (4-{[(2-Hydroxycarbamoyl-benzo[b]thiophen-6-ylmethyl)-amino]-methyl}-benzylamino)-acetic acid cyclopentyl ester]
18 | 101 to 1000 | < 330 | – | > 3300 | – | – | O=C(NO)c1cc2ccc(CNCC3CCC(CN[C@H](C(=O)OC4CCCC4)c4ccccc4)CC3)cc2s1 (stereo partly drawn) [Compound 126, (S)-[(4-{[(2-Hydroxycarbamoyl-benzo[b]thiophen-6-ylmethyl)-amino]-methyl}-cyclohexylmethyl)-amino]phenyl-acetic acid cyclopentyl ester]

Row | Structure (SMILES) | IC50 [1] [nM] | IC50 [2, 5] [nM] | IC50 ([3]; Homo sapiens, HeLa) [nM] | IC50 [4] [nM] | IC50 [3] [nM] | IC50 ([2]; U937 cells) [nM]
19 | CC(C)(C)OC[C@H](NCc1ccc(NCc2ccc3cc(C(=O)NO)sc3c2)cc1)C(=O)OC1CCCC1 [Compound 134, (S)-3-tert-Butoxy-2-{4-[(2-hydroxycarbamoyl-benzo[b]thiophen-6-ylmethyl)-amino]-benzylamino}-propionic acid cyclopentyl ester] | 101 to 1000 | 330 to 3300 | – | > 3300 | – | –
